Tests used:
Cannabinoid receptor 1 [1] = biological target: Cannabinoid receptor 1 (Homo sapiens, UniProt P21554); experiment: Displacement of [3H]CP-55940 from human recombinant CB1 receptor expressed in CHO cell membranes incubated for 90 mins by scintillation counting
Homo sapiens = organism: Homo sapiens; experiment: Selectivity ratio of Ki for human recombinant CB1 receptor to KI for human recombinant CB2 receptor
Cannabinoid receptor 2 [2] = biological target: T1, Cannabinoid receptor 2 (Rattus norvegicus, UniProt Q9QZN9); experiment: Displacement of [3H]CP-55940 from CB2 receptor in Sprague-Dawley rat spleen by scintillation counting
T1 sequence (Q9QZN9 whole entry): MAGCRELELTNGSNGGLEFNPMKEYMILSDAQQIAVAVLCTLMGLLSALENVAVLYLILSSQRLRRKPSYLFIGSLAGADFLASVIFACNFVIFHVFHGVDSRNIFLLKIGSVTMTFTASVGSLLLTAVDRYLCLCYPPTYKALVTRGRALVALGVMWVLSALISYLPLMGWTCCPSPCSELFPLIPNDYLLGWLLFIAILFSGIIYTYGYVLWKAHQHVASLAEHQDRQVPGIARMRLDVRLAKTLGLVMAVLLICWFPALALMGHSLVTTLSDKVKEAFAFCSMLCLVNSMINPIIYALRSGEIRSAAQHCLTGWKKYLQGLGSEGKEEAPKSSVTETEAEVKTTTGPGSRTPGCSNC

Cannabinoid receptor 2 [3] = biological target: T2, Cannabinoid receptor 2 (Homo sapiens, UniProt P34972); experiment: Agonist activity at human recombinant CB2 receptor expressed in CHO cell membranes assessed as inhibition of forskolin-induced cAMP accumulation; assay type: functional, cell-based
T2 sequence (P34972 whole entry): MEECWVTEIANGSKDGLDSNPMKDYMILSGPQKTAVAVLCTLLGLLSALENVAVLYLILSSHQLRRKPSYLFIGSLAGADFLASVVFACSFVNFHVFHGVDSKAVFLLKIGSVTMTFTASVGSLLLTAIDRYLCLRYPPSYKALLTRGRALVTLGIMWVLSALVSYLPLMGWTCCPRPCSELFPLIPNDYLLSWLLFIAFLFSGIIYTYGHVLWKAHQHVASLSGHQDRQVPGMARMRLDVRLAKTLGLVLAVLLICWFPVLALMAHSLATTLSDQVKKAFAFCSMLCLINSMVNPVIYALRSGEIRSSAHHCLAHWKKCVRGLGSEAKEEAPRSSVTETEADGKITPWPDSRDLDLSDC

Cannabinoid receptor 1 [4] = biological target: Cannabinoid receptor 1 (Rattus norvegicus, UniProt P20272); experiment: Displacement of [3H]CP-55940 from CB1 receptor in Sprague-Dawley rat brain by scintillation counting
Chain of Cannabinoid receptor 1 (Rattus norvegicus, UniProt P20272) (P20272 whole entry): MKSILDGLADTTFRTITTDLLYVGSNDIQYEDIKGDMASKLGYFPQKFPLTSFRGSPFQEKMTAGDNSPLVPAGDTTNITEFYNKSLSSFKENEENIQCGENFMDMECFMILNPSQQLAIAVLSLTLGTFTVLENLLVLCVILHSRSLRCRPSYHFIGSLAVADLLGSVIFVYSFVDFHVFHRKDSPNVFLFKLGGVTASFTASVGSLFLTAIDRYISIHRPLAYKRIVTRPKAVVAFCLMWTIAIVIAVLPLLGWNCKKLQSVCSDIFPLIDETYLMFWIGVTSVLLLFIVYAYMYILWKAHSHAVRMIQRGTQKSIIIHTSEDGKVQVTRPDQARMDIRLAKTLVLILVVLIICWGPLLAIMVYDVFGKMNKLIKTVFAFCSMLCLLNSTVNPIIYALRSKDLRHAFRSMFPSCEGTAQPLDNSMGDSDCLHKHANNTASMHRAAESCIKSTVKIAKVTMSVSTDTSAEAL

Cannabinoid receptor 2 [5] = biological target: T2, Cannabinoid receptor 2; experiment: Displacement of [3H]CP-55940 from human recombinant CB2 receptor expressed in CHO cell membranes incubated for 60 mins by scintillation counting

Chain of Cannabinoid receptor 1 (Homo sapiens, UniProt P21554) (P21554 whole entry): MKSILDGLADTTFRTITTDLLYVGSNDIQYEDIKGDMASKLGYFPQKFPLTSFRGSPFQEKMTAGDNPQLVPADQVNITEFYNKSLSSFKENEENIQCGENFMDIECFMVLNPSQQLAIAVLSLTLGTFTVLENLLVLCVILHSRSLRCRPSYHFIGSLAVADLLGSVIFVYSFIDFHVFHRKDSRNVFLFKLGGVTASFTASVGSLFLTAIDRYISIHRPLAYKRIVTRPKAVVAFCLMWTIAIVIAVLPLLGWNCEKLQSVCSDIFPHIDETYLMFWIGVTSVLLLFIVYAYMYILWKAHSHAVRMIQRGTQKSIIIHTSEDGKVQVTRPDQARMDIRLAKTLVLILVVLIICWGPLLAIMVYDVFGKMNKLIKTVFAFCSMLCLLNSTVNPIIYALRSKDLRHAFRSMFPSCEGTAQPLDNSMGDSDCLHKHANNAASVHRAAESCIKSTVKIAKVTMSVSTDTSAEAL

| SMILES | Ki (Cannabinoid receptor 1 [1]) [µM] | Ratio Ki (Homo sapiens) | Ki (Cannabinoid receptor 2 [2]) [µM] | IC50 (Cannabinoid receptor 2 [3]) [µM] | Ki (Cannabinoid receptor 1 [4]) [µM] | Ki (Cannabinoid receptor 2 [5]) [µM] |
| --- | --- | --- | --- | --- | --- | --- |
| C[C@@H]1COc2cccc3c(=O)c(C(=O)NC4CCCCC4)cn1c23 | 2.87 | 119 | 0.03 | 0.09 | 3.56 | 0.024 |
| C[C@H]1COc2cccc3c(=O)c(C(=O)NC4CCCCC4)cn1c23 | 4.65 | 25 | 0.25 | 0.724 | 5.24 | 0.188 |
| C[C@@H]1COc2cccc3c(=O)c(C(=O)NC45CC6CC(CC(C6)C4)C5)cn1c23 | > 10 | > 212 | 0.052 | 0.153 | > 10 | 0.047 |
| C[C@H]1COc2cccc3c(=O)c(C(=O)NC45CC6CC(CC(C6)C4)C5)cn1c23 | > 10 | > 128 | 0.086 | 0.25 | > 10 | 0.078 |
| CC[C@@H]1COc2cccc3c(=O)c(C(=O)NC4CCCCCC4)cn1c23 | 0.105 | 25 | 0.00603 | 0.0172 | 0.126 | 0.00412 |
| CC[C@H]1COc2cccc3c(=O)c(C(=O)NC4CCCCCC4)cn1c23 | 0.843 | 4.5 | 0.203 | 0.682 | 0.913 | 0.187 |
| CC[C@@H]1COc2cccc3c(=O)c(C(=O)NC45CC6CC(CC(C6)C4)C5)cn1c23 | 0.197 | 40 | 0.00617 | 0.0181 | 0.242 | 0.00493 |
| CC[C@H]1COc2cccc3c(=O)c(C(=O)NC45CC6CC(CC(C6)C4)C5)cn1c23 | 0.578 | 7 | 0.097 | 0.413 | 0.653 | 0.088 |
| CC(C)[C@@H]1COc2cccc3c(=O)c(C(=O)NC45CC6CC(CC(C6)C4)C5)cn1c23 | 0.088 | 71 | 0.00175 | 0.00984 | 0.095 | 0.00124 |
| CC(C)[C@H]1COc2cccc3c(=O)c(C(=O)NC45CC6CC(CC(C6)C4)C5)cn1c23 | 0.858 | 53 | 0.0193 | 0.055 | 0.864 | 0.0162 |
| CC(C)C[C@@H]1COc2cccc3c(=O)c(C(=O)NC45CC6CC(CC(C6)C4)C5)cn1c23 | > 10 | > 1080 | 0.0102 | 0.036 | > 10 | 0.00924 |
| O=C(NC12CC3CC(CC(C3)C1)C2)c1cn2c3c(cccc3c1=O)OC[C@H]2Cc1ccccc1 | 0.105 | 28 | 0.00465 | 0.0175 | 0.121 | 0.00372 |
| CC1(C)COc2cccc3c(=O)c(C(=O)NC45CC6CC(CC(C6)C4)C5)cn1c23 | 0.221 | 4 | 0.068 | 0.242 | 0.276 | 0.056 |
| CCC1COc2c(N3CCCC3)ccc3c(=O)c(C(=O)NC45CC6CC(CC(C6)C4)C5)cn1c23 (racemic) | > 10 | > 1230 | 0.0105 | 0.029 | > 10 | 0.00812 |
| CCC1COc2c(N3CCN(C)CC3)ccc3c(=O)c(C(=O)NC45CC6CC(CC(C6)C4)C5)cn1c23 (racemic) | > 10 | > 238 | 0.061 | 0.196 | > 10 | 0.042 |
| CCC1COc2cccc3c(=O)c(C(=O)Nc4ccncc4)cn1c23 (racemic) | 1.15 | 8 | 0.183 | 0.683 | 1.38 | 0.152 |

From ChEMBL document CHEMBL2163236, “7-Oxo-[1,4]oxazino[2,3,4-ij]quinoline-6-carboxamides as selective CB(2) cannabinoid receptor ligands: structural investigations around a novel class of full agonists” (J Med Chem, 2012)
